Data: US8466203B2, “Method of stabilizing human eye tissue by reaction with nitrite and related agents such as nitro compounds” (priority 2006, dated 2013)
Values joined by “and” are separate entries in the source; they are usually repeats but may differ in a detail not shown here. Equal values may be shown once. Read-outs that look alike come from different tables or passages of the source.

What was measured:
porcine sclera = assay: Thermal shrinkage temperature analysis of porcine scleral strips; conditions: for T50 (temperature at 50% of maximal shrinkage) / T50 Δ (change in 50% shrinkage temperature compared to control) / Ti (temperature at 1% absolute shrinkage): pH 7.4, 37° C., 96 hrs
Source text: (§1) Thermal shrinkage temperature or denaturation temperature (Ts) is a technique that has been used for decades in studying collagen cross-linking. As collagen fibers are progressively heated, a threshold temperature is reached at which point disruption of hydrogen bonding in the collagen molecule triple helix occurs, resulting in unwinding of the triple helices. The denaturation of tertiary protein structure results in a rapid shrinkage of the tissue of up to 80%. This phenomenon can be expressed in various ways including temperature of onset of tissue shrinkage, temperature at maximal tissue shrinkage, and temperature at 50% of maximal tissue shrinkage, for example. In addition, differential scanning calorimetry (DSC) is related to thermal shrinkage temperature analysis and is widely used to evaluate biomaterial cross-linking. Thermal shrinkage temperature is essentially a simplified version of DSC and can be used effectively to screen the cross-linking efficacy of compounds. For the purposes of this study, the onset of shrinkage is considered the Ts and the temperature at which 50% of maximal shrinkage has occurred is T50. Graphs depicting the relationship between degree of shrinkage and temperature indicate differences in degree of cross-linking between groups. Thus, stabilization of collagen fiber structures through non-enzymatic cross-linking increases Ts and T50.
(§2) This system can perform multiple Ts assays in succession, allowing rapid screening of a number of potential cross-linking agents and conditions. […] Inlet and outlet fittings allow for constant circulation of heated water which is modulated by a digitally controlled water bath equipped with a water pump. The entire box is placed on a digital photo scanner connected to a Windows based computer. Beginning at 50° C. the temperature is raised at a rate of 1° C./min and serial scans are taken at every degree increase in temperature up to 80° C. […] As the tissue shrinks, the images are captured by the scanner. The image files are later analyzed for 2-dimensional area using NIH Image J software and % shrinkage calculations are made using Microsoft Excel for graphing purposes. This method obviates the need for removal of tissue pieces from the water bath with manual micrometer measurements as described by the UVR group (Spoerl, E., et al., 2004).
Using this simple, reproducible assay enables the screening of a number of compounds for cross-linking efficacy. This is first performed using porcine eyes because of their low cost. Follow up studies can be performed using human eyes. Porcine eyes are obtained within 6 hrs of sacrifice (Hatfield Meat Packing, Inc., Hatfield Pa.). Eyes showing clear corneas and intact epithelia are chosen for study. […] Each strip is then cross-linked using a nitro agent. […] Opthalmol. 1999; 117:166-169) for 24-96 hrs. Following incubation, the samples are evaluated for degree of cross-linking using the Ts assay as described above.
From the data, Ts curves are generated for each compound and condition studied. Each data point is the average of 3 independent samples.

porcine cornea [1] = assay: Thermal shrinkage temperature analysis of porcine corneal strips
Source text: as §1, §2
Using this simple, reproducible assay enables the screening of a number of compounds for cross-linking efficacy. This is first performed using porcine eyes because of their low cost. Follow up studies can be performed using human eyes. Porcine eyes are obtained within 6 hrs of sacrifice (Hatfield Meat Packing, Inc., Hatfield Pa.). Eyes showing clear corneas and intact epithelia are chosen for study. […] Each strip is then cross-linked using a nitro agent. The incubation solution is 20% Dextran (T500) [to prevent tissue swelling] in 0.2 M NaH2PO4/Na2HPO4 (pH 7.4) with various concentrations of nitro agent (i.e. 1, 10, and 100 mM). […] The samples are then placed in 2 mL microcentrifuge tubes with 1 mL of incubation solution and reacted in a 34° C. water bath (simulating corneal temperature—Girardin, F., et al., “Relationship between corneal temperature and finger temperature,” Arch. Opthalmol. 1999; 117:166-169) for 24-96 hrs. Following incubation, the samples are evaluated for degree of cross-linking using the Ts assay as described above.

porcine cornea [2] = assay: Gross stiffness of porcine corneal strips handled with a forceps; conditions: 100 mM, pH 7.4, 37° C., 48 hrs
Method: Fresh porcine corneal strips and corneoscleral complexes obtained within 6 hrs of sacrifice and incubated at 37° C. in buffered solutions (pH 7.4) containing 20% Dextran (T500) and either 100 mM NaNO2 or 100 mM of one each of the specified β-nitro alcohols
These images were taken from tissues cross-linked with nitrite and the β-nitro alcohols 2-nitroethanol, 2-nitro-1-propanol, and […], for 48 hrs. […] Fresh porcine corneal strips and corneoscleral complexes were obtained within 6 hrs of sacrifice and incubated at 37° C. in buffered solutions (pH 7.4) containing 20% Dextran (T500) and either 100 mM NaNO2 or 100 mM of one each of the β-nitro alcohols. After 48 hrs, the following images were obtained. […] FIGS. 13 (B and D)

[3] = tested on: bovine corneal endothelial cells; conditions: 48 hrs exposure

What does the source list for `O=[N+]([O-])CCO` [2-nitroethanol]?
T50 (temperature at 50% of maximal shrinkage) (porcine sclera; 1 mM reagent): 65.7 °C; T50 Δ (change in 50% shrinkage temperature compared to control) (porcine sclera; 1 mM reagent): 0.4 °C; Ti (temperature at 1% absolute shrinkage) (porcine sclera; 1 mM reagent): 62.9 °C; Ts shift (porcine sclera; 1 mM serially applied over 10 days): 2-3 °C; shift in Ts (in words) (porcine sclera; 1 mM, 4 days (96 hrs) without replacing the incubation solution): did not produce a shift in Ts; T50 shift (porcine sclera; 1 mM, incubation solution exchanged daily, 6 days): 1.3 °C; T50 shift (porcine sclera; 1 mM, incubation solution exchanged daily, 10 days): 3.2 °C; T50 shift (porcine sclera; 1 mM, incubation solution exchanged daily, 14 days): 5.4 °C and 5.6 °C; T50 (temperature at 50% of maximal shrinkage) (porcine sclera; 10 mM reagent): 69.8 °C; T50 Δ (change in 50% shrinkage temperature compared to control) (porcine sclera; 10 mM reagent): 4.5 °C; Ti (temperature at 1% absolute shrinkage) (porcine sclera; 10 mM reagent): 67.2 °C; maximal increase of Ts (porcine sclera; 100 mM): 8 °C; T50 (temperature at 50% of maximal shrinkage) (porcine sclera; 100 mM reagent): 73.7 °C; Ti (temperature at 1% absolute shrinkage) (porcine sclera; 100 mM reagent): 70.7 °C; T50 shift (porcine sclera; 100 mM, 24 hrs of incubation): 1.4 °C; T50 shift (porcine sclera; 100 mM, 48 hrs of incubation): 2.4 °C; T50 shift (porcine sclera; 100 mM, 72 hrs of incubation): 5.3 °C; blocking of the cross-linking effect by equimolar urea (porcine sclera; equimolar urea (nitrous acid trapping agent)): not blocked; Ts onset shift (porcine cornea [1]; 1 mM serially applied over 6 days): 1-2 °C; shift in Ts (in words) (porcine cornea [1]; 1 mM, 4 days without replacing the incubation solution): did not produce a shift in Ts; Ts onset shift (porcine cornea [1]; 10 mM): 5 °C; Ts onset shift (porcine cornea [1]; 100 mM): 8 °C; stiffness change when handled with a forceps (porcine cornea [2]): dramatic stiffness change; Apoptosis (Annexin V) staining ([3]; 0.1 mM): −; Apoptosis (Annexin V) staining ([3]; 0.5 mM): −; Apoptosis (Annexin V) staining ([3]; 0.75 mM): −; Apoptosis (Annexin V) staining ([3]; 1 mM): −; Apoptosis (Annexin V) staining ([3]; 2 mM): −; Apoptosis (Annexin V) staining ([3]; 3 mM): +
